Results reported in patent US7423051B2, “2,6-diaminopyridine derivatives” (Hoffmann-La Roche Inc., priority 2004, dated 2008).
Where two headings read alike, the source gives them in different places.

Experiments:
human cyclin D1-CDK4 = target: T1, human cyclin D1-CDK4 (Homo sapiens, UniProt P11802); experiment: CDK4 HTRF kinase assay (Ki measurement); assay type: biochemical; details: Rb substrate, ATP at 3x Km, Ki=IC50/(1+S/Km)
T1 construct: GST (N); made in house; host or cells: High Five insect cells (baculovirus)
T1 sequence (P11802 whole entry): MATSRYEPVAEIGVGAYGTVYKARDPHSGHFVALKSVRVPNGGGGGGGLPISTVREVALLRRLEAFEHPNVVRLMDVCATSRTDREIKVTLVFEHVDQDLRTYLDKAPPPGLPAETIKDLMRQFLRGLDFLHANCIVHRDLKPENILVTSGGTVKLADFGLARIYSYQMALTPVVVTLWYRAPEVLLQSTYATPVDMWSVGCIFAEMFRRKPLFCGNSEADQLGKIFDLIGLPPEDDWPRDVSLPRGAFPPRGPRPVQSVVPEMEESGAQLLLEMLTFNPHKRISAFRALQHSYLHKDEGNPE
T1 sequence (P24385 whole entry partner): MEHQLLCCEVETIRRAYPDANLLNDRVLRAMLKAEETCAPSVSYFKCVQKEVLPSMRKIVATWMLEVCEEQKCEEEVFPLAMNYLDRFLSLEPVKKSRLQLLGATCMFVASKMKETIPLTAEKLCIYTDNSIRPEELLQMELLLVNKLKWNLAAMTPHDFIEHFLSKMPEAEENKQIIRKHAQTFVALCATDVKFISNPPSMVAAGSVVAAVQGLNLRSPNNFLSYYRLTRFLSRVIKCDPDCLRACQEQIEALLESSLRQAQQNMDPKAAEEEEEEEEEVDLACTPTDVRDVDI
Excerpt: (§1) Using recombinant human cyclin B-CDK1, human cyclin E-CDK2 or human cyclin D1-CDK4 complexes. GST-cyclinE (GST-cycE), CDK2, GST-cyclinB (GST-cycB), CDK1, GST-CDK4 and cyclin D1 (cycD1) cDNA clones in baculovirus vectors were provided by Dr. W. Harper at the Baylor College of Medicine, Houston, Tex. Proteins were co-expressed in High Five™ insect cells and the complex was purified on glutathione Sepharose resin (Pharmacia, Piscataway, N.J.) as previously described (Harper, J. W. et al. Cell 1993, 75, 805-816). A 6×-Histidine tagged truncated form of retinoblastoma (Rb) protein (amino acid 386-928) was used as the substrate for the cycD1-CDK4, cycB-CDK1 and the cycE-CDK2 assays (the expression plasmid was provided by Dr. Veronica Sullivan, Department of Molecular Virology, Roche Research Centre, Welwyn Garden City, United Kingdom). The Rb protein is a natural substrate for phosphorylation by CDK4, CDK2 and CDK1 (see Herwig and Strauss Eur. J. Biochem. Vol. 246 (1997) pp.581-601 and the references cited therein).
(§2) The expression of the 62Kd protein was under the control of an IPTG inducible promoter in an M15 E. coli strain. […] Purified Rb fusion protein stocks were quantitated for protein concentration, aliquoted, and stored at −70° C.
(§3) Using the protein constructs described above, CDK1, CDK2, and CDK4 HTRF assays were set up. These were done in 96-well format and read in 384-well plate format. […]
(§4) In the CDK4 assay, test compounds were diluted to 3× their final concentrations in 25 mM Hepes, pH 7.0, 6.25 mM MgCl2, 1.5 mM DTT, 135 μM ATP. […] The plates were read using either ViewLux or Victor V readers (PerkinElmer Life Sciences) using an excitation wavelength of 340 nm and dual emission wavelengths of 615 nm and 665 nm. […] For ATP competitive inhibitors, the Ki values were calculated according to the following equation: Ki=IC50/(1+S/Km) where S refers to the substrate concentration (ATP) and Km refers to the Michaelis-Menten constant for the ATP.

HCT116 cell line = experiment: Tetrazolium dye proliferation assay (MTT assay); assay type: cell-based; details: HCT-116; human colon tumor cell line HCT116, MTT assay
Protocol: Cell Based Assays (Tetrazolium dye proliferation assay)(“MTT Assay”)
Proliferation was evaluated by the tetrazolium dye assay according to the procedure of Denizot and Lang (Denizot, F. and Lang, R. J Immunol Methods 1986, 89, 271-277). The cell line used was HCT116, a colorectal carcinoma cell line obtained from the American Type Cell Culture Collection (ATCC; Rockville, Md.). The cells were grown in McCoy's 5A medium supplemented with 10% FCS and L-glutamine.
Cells were plated at the appropriate seeding density to give logarithmic growth over the course of the assay in a 96-well tissue culture plate. Plates were incubated overnight at 37° C. in a humidified incubator with 5% CO2. The next day, test compounds were serially diluted to four times the final concentration in the appropriate medium containing 1.2% DMSO. One-fourth final volume of each dilution was added in duplicate to the plates containing cells. The same volume of 1.2% DMSO in medium was added to a row of “control wells” such that the final concentration of DMSO in each well was 0.3%. Wells to which no cells were added served as the “blank.” Wells to which no inhibitor was added served as “no inhibitor control.” The plates were returned to the incubator, and at set time points (determined by their growth curves) plates were analyzed as described below.
3-(4,5-dimethylthiazole-2-yl)-2,5-diphenyl-2H-tetrazolium bromide (thiazolyl blue; MTT; Sigma) was added to each well to yield a final concentration of 1 mg/ml. Plates were returned to the incubator for 2.5-3 hours at 37° C. […] Absorbance readings were taken in a microtiter plate reader (Dynatech and Molecular Devices plate readers were used interchangeably) at a wavelength of 570 nm with a 650 nm reference. Percent inhibition (% INH) is calculated by subtracting the absorbance of the blank well from all wells, then subtracting the ratio of the average absorbance of each test duplicate (SAVE) by the average of the controls (CAVE) from 1.00. […]

human cyclin E-CDK2 = target: T2, human cyclin E-CDK2 (Homo sapiens, UniProt P24941); experiment: CDK2 HTRF kinase assay (Ki measurement); assay type: biochemical; details: Rb substrate, ATP at 3x Km, Ki=IC50/(1+S/Km)
T2 construct: made in house; host or cells: High Five insect cells (baculovirus)
Excerpt: as §1, §2, §3
as §4, with “the ATP. […]” for “the ATP.”

human cyclin B-CDK1 = target: T3, human cyclin B-CDK1 (Homo sapiens, UniProt P06493); experiment: CDK1 HTRF kinase assay (Ki measurement); assay type: biochemical; details: Rb substrate, ATP at 3x Km, Ki=IC50/(1+S/Km)
T3 construct: made in house; host or cells: High Five insect cells (baculovirus)
T3 sequence (P06493 whole entry): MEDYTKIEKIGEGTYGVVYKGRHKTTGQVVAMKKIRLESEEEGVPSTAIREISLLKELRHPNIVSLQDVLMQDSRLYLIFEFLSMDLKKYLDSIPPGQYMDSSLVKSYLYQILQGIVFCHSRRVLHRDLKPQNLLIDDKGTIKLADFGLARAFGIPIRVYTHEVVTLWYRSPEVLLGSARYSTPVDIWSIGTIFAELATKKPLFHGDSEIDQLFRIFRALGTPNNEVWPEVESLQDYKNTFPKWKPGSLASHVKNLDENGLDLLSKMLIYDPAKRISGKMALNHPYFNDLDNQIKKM
T3 sequence (P14635 whole entry partner): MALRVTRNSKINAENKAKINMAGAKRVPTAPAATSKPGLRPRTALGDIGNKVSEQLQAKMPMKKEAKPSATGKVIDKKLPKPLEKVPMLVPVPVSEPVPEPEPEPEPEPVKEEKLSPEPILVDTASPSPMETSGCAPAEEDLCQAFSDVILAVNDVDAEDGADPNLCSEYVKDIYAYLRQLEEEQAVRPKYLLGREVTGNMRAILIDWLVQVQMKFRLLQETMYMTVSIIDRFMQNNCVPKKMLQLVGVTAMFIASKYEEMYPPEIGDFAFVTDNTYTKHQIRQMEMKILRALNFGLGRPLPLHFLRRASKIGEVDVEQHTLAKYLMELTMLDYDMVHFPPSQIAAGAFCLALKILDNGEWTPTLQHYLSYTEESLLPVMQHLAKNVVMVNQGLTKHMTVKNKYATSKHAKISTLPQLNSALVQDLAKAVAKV
Excerpt: Using recombinant human cyclin B-CDK1, human cyclin E-CDK2 or human cyclin D1-CDK4 complexes. GST-cyclinE (GST-cycE), CDK2, GST-cyclinB (GST-cycB), CDK1, GST-CDK4 and cyclin D1 (cycD1) cDNA clones in baculovirus vectors were provided by Dr. W. Harper at the Baylor College of Medicine, Houston, Tex. Proteins were co-expressed in High Five™ insect cells and the complex was purified on glutathione Sepharose resin (Pharmacia, Piscataway, N.J.) as previously described (Harper, J. W. et al. Cell 1993, 75, 805-816). […]
as §2, §3
In the CDK4 assay, test compounds were diluted to 3× their final concentrations in 25 mM Hepes, pH 7.0, 6.25 mM MgCl2, 1.5 mM DTT, 135 μM ATP. […] The plates were read using either ViewLux or Victor V readers (PerkinElmer Life Sciences) using an excitation wavelength of 340 nm and dual emission wavelengths of 615 nm and 665 nm. […]

| Structure (SMILES) | Ki (human cyclin D1-CDK4) | IC50 (HCT116 cell line) | Ki (human cyclin E-CDK2; read-out: Ki for cdk2) | Ki (human cyclin B-CDK1) | Ki (human cyclin E-CDK2; read-out: Ki for cdk2 (unit inferred)) |
| --- | --- | --- | --- | --- | --- |
| COc1ccc(F)cc1C(=O)c1ccc(NC2CCN(S(C)(=O)=O)CC2)nc1N [Example 23, [2-Amino-6-(1-methanesulfonyl-piperidin-4-ylamino)-pyridin-3-yl]-(5-fluoro-2-methoxy-phenyl)-methanone] | 40 nM | 9000 nM | 98 nM | – | – |
| COc1ccc(F)c(F)c1C(=O)c1ccc(NC2CCN(S(C)(=O)=O)CC2)nc1N [Example 40, [2-Amino-6-(1-methanesulfonyl-piperidin-4-ylamino)-pyridin-3-yl]-(2,3-difluoro-6-methoxy-phenyl)-methanone] | 17 nM | 2600 nM | – | 60 nM | 54 nM |
| COc1cc(Cl)c(F)cc1C(=O)c1ccc(NC2CCN(S(C)(=O)=O)CC2)nc1N [Example 49, [2-Amino-6-(1-methanesulfonyl-piperidin-4-ylamino)-pyridin-3-yl]-(4-chloro-5-fluoro-2-methoxy-phenyl)-methanone] | 8 nM | 3000 nM | 39 nM | 154 nM | – |
